Results as given in BindingDB's records for doi:10.7270/Q23T9FMP (The Scripps Research Institute Molecular Screening Center, 2007).
Where a name gives a salt, the structure may show the parent alone.

Target: Steroidogenic factor 1 (Homo sapiens, UniProt Q13285)
Experiment: activation of SF-1 LBD reporter – cell-based, CHO-K1, Gal4-SF-1 LBD, luciferase luminescence, dose response (AID 692)
[1] = inactive by the depositor's call

Sequence of Steroidogenic factor 1 (Q13285 whole entry, the tested form may be a part): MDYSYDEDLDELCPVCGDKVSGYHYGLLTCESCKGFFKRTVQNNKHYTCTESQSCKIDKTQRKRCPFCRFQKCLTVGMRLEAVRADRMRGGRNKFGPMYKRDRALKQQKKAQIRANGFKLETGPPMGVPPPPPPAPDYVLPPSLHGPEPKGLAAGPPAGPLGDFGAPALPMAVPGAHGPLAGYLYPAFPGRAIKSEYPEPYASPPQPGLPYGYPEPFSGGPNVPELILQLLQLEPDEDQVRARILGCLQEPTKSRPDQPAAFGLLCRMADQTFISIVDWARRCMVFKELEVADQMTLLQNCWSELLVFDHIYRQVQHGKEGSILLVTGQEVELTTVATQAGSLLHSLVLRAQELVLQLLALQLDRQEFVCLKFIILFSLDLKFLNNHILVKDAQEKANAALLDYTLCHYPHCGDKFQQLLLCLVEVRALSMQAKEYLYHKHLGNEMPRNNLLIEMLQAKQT

Row | EC50 [nM] | EC50 [1] [nM] | SMILES
1 | > 407 | – | CC1(C)Cc2c(sc(NC(=O)c3ccc(Br)o3)c2C#N)CO1 [5-bromanyl-N-(3-cyano-5,5-dimethyl-4,7-dihydrothieno[2,3-c]pyran-2-yl)furan-2-carboxamide]
2 | > 99000 | – | COc1ccc(OC)c2sc(NC(=O)c3ccc(Br)s3)nc12 [5-bromanyl-N-(4,7-dimethoxy-1,3-benzothiazol-2-yl)thiophene-2-carboxamide]
3 | 4100 | – | O=C(Nc1cccc(-c2nnc(-c3ccccc3)o2)c1)c1ccc(Br)o1 [5-bromanyl-N-[3-(5-phenyl-1,3,4-oxadiazol-2-yl)phenyl]furan-2-carboxamide]
4 | 3230 | – | CCc1ccc(C(=O)NCc2cccs2)s1 [5-ethyl-N-(2-thenyl)thiophene-2-carboxamide]
5 | 957 | – | c1ccc(-c2cnc(CSc3nnc4ccccn34)o2)cc1 [5-phenyl-2-([1,2,4]triazolo[4,3-a]pyridin-3-ylsulfanylmethyl)-1,3-oxazole]
6 | – | 12400 | CCN(CC)c1ccc(-n2cc3c(=O)n(C)c(=O)n(C)c3c2)cc1 [6-(4-Diethylamino-phenyl)-1,3-dimethyl-1,6-dihydro-pyrrolo[3,4-d]pyrimidine-2,4-dione]
7 | 380 | – | COc1ccc(-c2cn3ccsc3n2)cc1 [6-(4-methoxyphenyl)imidazo[2,1-b][1,3]thiazole]
8 | 183 | – | CCOC(=O)c1cnc2c(-c3ccccc3)cnn2c1N [7-amino-3-phenyl-6-pyrazolo[1,5-a]pyrimidinecarboxylic acid ethyl ester]
9 | > 1220 | – | COCC(C)NC(=O)c1noc2c1CCc1cc(OC)ccc1-2 (stereo not given) [7-methoxy-N-(1-methoxypropan-2-yl)-4,5-dihydrobenzo[g][1,2]benzoxazole-3-carboxamide]
10 | > 99000 | – | CCc1nc(Nc2ccc3nccnc3c2)c2oc3ccccc3c2n1 [(2-ethylbenzofuro[3,2-d]pyrimidin-4-yl)-quinoxalin-6-yl-amine;hydrochloride]
11 | 4470 | – | CC(=Nc1cccc(O)c1)c1sc2ccccc2c1O [(2Z)-2-[1-(3-hydroxyanilino)ethylidene]-1-benzothiophen-3-one]
12 | 746 | – | COC(=O)CSc1nc2cc(C)ccc2cc1C#N [(3-Cyano-7-methyl-quinolin-2-ylsulfanyl)-acetic acid methyl ester]
13 | 3590 | – | Cc1ccc(C2C(C(=O)c3cnn(-c4ccccc4)c3C)C(=O)C(=O)N2CCN(C)C)o1 (stereo not given) [(4E)-1-[2-(dimethylamino)ethyl]-4-[hydroxy-(5-methyl-1-phenyl-4-pyrazolyl)methylidene]-5-(5-methyl-2-furanyl)pyrrolidine-2,3-dione]
14 | 741 | – | CC(=NC1CCCC1)c1c(C)[nH]n(-c2nc3ccccc3s2)c1=O [(4Z)-2-(1,3-benzothiazol-2-yl)-4-[1-(cyclopentylamino)ethylidene]-5-methylpyrazol-3-one]
15 | > 11000 | – | Cn1c(-c2ccc3c(c2)OCO3)cnc1NCc1ccccc1 [(5-Benzo[1,3]dioxol-5-yl-1-methyl-1H-imidazol-2-yl)-benzyl-amine]
16 | 1010 | – | Fc1ccc2nc(Nc3nc4c(s3)CCCC4)sc2c1 [(6-fluoro-1,3-benzothiazol-2-yl)-(4,5,6,7-tetrahydro-1,3-benzothiazol-2-yl)amine]
17 | 2890 | – | CC(=N)C(C#N)C(=O)CSc1ccc2c(c1)OCCO2 (stereo not given) [(E)-3-amino-2-[2-(2,3-dihydro-1,4-benzodioxin-6-ylsulfanyl)acetyl]but-2-enenitrile]
18 | 5540 | – | O=C(Nc1ccc(NC(=O)c2cccs2)cn1)c1ccco1 [Furan-2-carboxylic acid {5-[(thiophene-2-carbonyl)-amino]-pyridin-2-yl}-amide]
19 | 444 | – | CC(=O)Nc1ccc(-c2cc3ccccc3o2)cc1 [MLS000036584]
20 | > 1220 | – | O=C(Nc1nnc(C2CCCCC2)s1)c1ccco1 [MLS000039439]
21 | > 3670 | – | CC(=O)c1c(C)[nH]c(C(=O)NCCc2cccc(C)c2)c1C [MLS000045238]
22 | > 99000 | – | O=C(NCC1CCCO1)c1coc2nc3ccccc3nc12 (stereo not given) [MLS000046703]
23 | > 407 | – | O=C(Nc1ccc2c(c1)OCO2)c1ccc(COc2ccc3c(c2)CCC3)o1 [MLS000048173]
24 | 1180 | – | COc1ccc(CCC(=O)Nc2ccc(-c3noc(-c4ccc(OC)c(OC)c4)n3)cc2)cc1 [MLS000049572]
25 | 1190 | – | O=C(Nc1ccc(-c2cn3ccsc3n2)cc1)C1CC1 [MLS000053249]

Row | EC50 [nM] | EC50 [1] [nM] | SMILES
26 | 589 | – | COc1ccc(NC(=O)c2ccc3c(c2)OCO3)cc1Cl [MLS000053302]
27 | 7740 | – | CS(=O)(=O)c1ccc2nc(NC(=O)C3COc4ccccc4O3)sc2c1 (stereo not given) [MLS000056123]
28 | 720 | – | O=C(Nc1ccc(CN2CCOCC2)cc1)c1cc2ccccc2o1 [MLS000062478]
29 | 2820 | – | CC(C)(C)c1cc(NC(=O)C2CCCO2)no1 (stereo not given) [MLS000065845]
30 | 3100 | – | O=C(NCc1ccco1)c1cc2c(s1)CCCCC2 [MLS000065859]
31 | 1380 | – | CCOC(=O)c1cc2cc(OC)ccc2[nH]1 [MLS000071430]
32 | 1220 | – | C=CCn1c(-c2ccccc2)c[nH]c1=S [MLS000071728]
33 | > 11000 | – | CCOc1ccc(OCC)c(NC(=O)CSc2nc3c(c(=O)n(C)c(=O)n3C)n2C(C)C)c1 [MLS000072726]
34 | 1920 | – | Cc1cnc(NC(=O)CSc2nnc(-c3ccccc3)o2)s1 [MLS000077990]
35 | 544 | – | CCOC(=O)c1[nH]c2ccc(C)cc2c1N [MLS000079379]
36 | 760 | – | Nc1nc2c(s1)CCc1c-2cnn1-c1ccccc1 [MLS000085948]
37 | – | 10100 | Cc1cc(C(=O)Nc2sc3c(c2C#N)CCC(C(C)(C)C)C3)no1 (stereo not given) [MLS000087312]
38 | > 99000 | – | CN(C)C=Nc1ncnc2c1cnn2-c1ccc(C(F)(F)F)cn1 [MLS000087855]
39 | 4430 | – | CCCc1cc(C(=O)Nc2ccccc2SC)no1 [MLS000116378]
40 | 2200 | – | CC(=O)c1cccc(NC(=O)c2cnn3ccccc23)c1 [MLS000118777]
41 | – | 12200 | CCOc1ccc(OCC)c(NC(=O)C2CCCN2S(=O)(=O)c2cccc3cccnc23)c1 (stereo not given) [MLS000119093]
42 | 6470 | – | COc1ccccc1Nc1nc2ccccc2[nH]1 [N-(2-methoxyphenyl)-1H-benzimidazol-2-amine]
43 | 1460 | – | CC(=O)Nc1ccc(-c2nc3c(C)cccc3[nH]2)cc1 [SMR000001134]
44 | > 11000 | – | Cc1cc2n(n1)C(c1ccc(N(C)C)cc1)Nc1ccccc1-2 (stereo not given) [SMR000015202]
45 | 6830 | – | CC1(C)CC(=O)C(=CNc2ccccc2)C(=O)C1 [SMR000054233]
46 | 7840 | – | O=c1[nH]c2ccccc2nc1-c1cccs1 [SMR000068248]
47 | 6660 | – | CN(C)C(=O)CSc1nnc(C23CC4CC(CC(C4)C2)C3)o1 [SMR000077996]
48 | 543 | – | CCCCC1CCC(c2nc(-c3ccccn3)no2)CC1 (stereo not given) [SMR000105468]
49 | > 11000 | – | CC1(C)CC(=O)C(=CNc2ccc3[nH]ncc3c2)C(=O)C1 [SMR000111453]
50 | 813 | – | COCCn1c(C)cc(C(=O)COC(=O)C23CC4CC(CC(O)(C4)C2)C3)c1C [[2-[1-(2-methoxyethyl)-2,5-dimethylpyrrol-3-yl]-2-oxoethyl] 3-hydroxyadamantane-1-carboxylate]
